Reference: BigSolDB 2.1

COP(=O)(NC(C)=O)SC (stereo unspecified)
Conditions | solubility (mole fraction)
in acetone, 299.45 K | 0.068
in acetone, 302.6 K | 0.0811
in acetone, 305.2 K | 0.0923
in acetone, 306.4 K | 0.0986
in acetone, 309.8 K | 0.119
in acetone, 311.4 K | 0.131
in acetone, 313.75 K | 0.149
in acetone, 315.8 K | 0.167
in dichloromethane, 292.9 K | 0.176
in dichloromethane, 295.2 K | 0.19
in dichloromethane, 297.3 K | 0.203
in dichloromethane, 298.45 K | 0.21
in dichloromethane, 299.6 K | 0.217
in dichloromethane, 301.05 K | 0.226
in dichloromethane, 302.3 K | 0.233
in dichloromethane, 303.25 K | 0.241
in ethyl acetate, 307.9 K | 0.035
in ethyl acetate, 310.75 K | 0.0408
in ethyl acetate, 314.2 K | 0.049
in ethyl acetate, 318.4 K | 0.0648
in ethyl acetate, 321.55 K | 0.0779
in ethyl acetate, 324.95 K | 0.0965
in ethyl acetate, 327.6 K | 0.118
in isopropanol, 299.3 K | 0.0606
in isopropanol, 303.95 K | 0.0773
in isopropanol, 306.7 K | 0.0925
in isopropanol, 310.75 K | 0.118
in isopropanol, 313.35 K | 0.137
in isopropanol, 316.45 K | 0.163
in isopropanol, 319.45 K | 0.193
in isopropanol, 322 K | 0.224
